In US9233949B2, “Treatment for oxidative stress and/or hypertension” (Georgetown University, priority 2009, dated 2016):

What was measured:
[1] = system: conscious salt-loaded spontaneously hypertensive rats; test: MAP in conscious salt-loaded SHR, daily oral gavage of drugs dissolved in DMSO; assay type: in vivo, rat; details: for Δ MAP Day 1 / Δ MAP Day 2 / Δ MAP Day 3: mean vehicle-adjusted fall, 2 mL of 10 mmol/L daily oral gavage, DMSO, n=3; for blood pressure effect, summary of Table 1: over three days, DMSO vehicle
Procedure: In another experiment, conscious salt-loaded spontaneously hypertensive rats received daily oral gavage with 2 mL of 10 mmol/L tempol, telmisartan, tempol/telmisartan ester-linked adduct (YK), tempamine/telmisartan amide-linked adduct (PLJ), and tempol+telmisartan. The drugs were dissolved in DMSO.

[2] = system: O2.^− generated by xanthine plus xanthine oxidase; test: Cell-free SOD mimetic / antioxidant assay, lucigenin-enhanced chemiluminescence; assay type: biochemical; details: drugs 10^−4 M, cell-free buffer with xanthine plus xanthine oxidase
Procedure: Low dose (10 μmol L^−1) lucigenin-enhanced chemiluminescence was used as previously described, to detect O2.^−, antioxidants or SOD mimetic properties. Vehicle or drugs (10^−4 M) were first added to cell-free buffer with O2.^− stimulated with xanthine (25 μmol/L) plus xanthine oxidase (9 IU/mL) to study the intrinsic antioxidant properties of the drugs used (34). Subsequent studies were performed in PGVSMCs from spontaneously hypertensive rats grown in 6-well plates. Cells (10^6 cells per well) were stimulated for 4 hours with Ang II (10^−6 M) to generate O2.^− in the presence of vehicle or drugs (19, 34, 45).

[3] = system: conscious spontaneously hypertensive rats; test: Telemetric mean arterial pressure in conscious SHR on high salt diet after gavage; assay type: in vivo, rat; details: for reduction of MAP: 80 μmol·kg^−1 once-daily gavage, high salt diet, maximal 16-24 hours after each gavage; for reduction of BP compared with tempol: after the first and the fourth gavage
Procedure: Spontaneously hypertensive rats (SHR) were anesthetized with 3% isoflurane for placement of telemetric blood pressure recorders as described (46). After 10 days, spontaneously hypertensive rats were anesthetized with halothane between 9 and 10 am and given a 2 mL gavage. Each rat was first given a training gavage with 2 mL of vehicle (0.9% w/v sodium chloride) and, two days later a second vehicle gavage as the control group. We detected no differences in the pattern of 4-hourly BP recording after the first or second vehicle gavage, compared to a day in which no gavage was given (data not shown). Blood pressure was recorded continuously. Data are presented as mean values over 4-hr periods for mean arterial pressure (MAP) and heart rate (HR). Two days after the second vehicle gavage, rats were again anesthetized with halothane and given a 2 mL gavage with one of the test drugs (10 mmol/L or 80 μmol·kg^−1). In random order rats received tempol, telmisartan, tempol plus telmisartan, or tempol/telmisartan ester-linked adduct (YK). Each rat received only one drug or drug combination. Two additional groups were tested similarly with candesartan and tempol+candesartan.
Preliminary studies were undertaken of antihypertensive responsiveness to gavage with 80 and 800 μmol kg^−1 of tempol. […] Therefore, the study was conducted in rats equilibrated to a high salt intake (Teklad Inc, 2826 Latham Drive, Madison, Wis. 53713) and given four daily doses of […] of drugs or vehicle.

[4] = system: Ang II-stimulated spontaneously hypertensive rat preglomerular vascular smooth muscle cells; test: O2.^− generation in Ang II-stimulated PGVSMCs, lucigenin-enhanced chemiluminescence; assay type: cell-based
Procedure: Preglomerular vascular smooth muscle cells (PGVSMCs) were isolated from 13- to 15-week-old male spontaneously hypertensive rats purchased from Taconic Farms (Germantown, N.Y.) as previously described (3, 9). Briefly, 1% Fe2O3 in DMEM was injected into isolated kidneys through the renal artery. The iron-loaded kidney was removed from the rat, the cortex was minced and washed in a 1% collagenase IV solution. Blood vessels were collected on a magnet and incubated with DMEM/F12 supplemented with 10% FCS and 20 U of penicillin-streptomycin. Experiments were conducted between passage 5 and 15. PGVSMCs were cultured in DMEM/F12 supplemented with 10% FBS, 100 U/mL penicillin, 100 μg/mL streptomycin and 200 μg/mL glutamine at 37° C. in 5% CO2-95% air at 98% humidity. […]
To determine the effects of drugs, cells were pretreated with graded concentrations (10^−12 to 10^−4 M) of tempol, telmisartan, tempol plus telmisartan, and tempol/telmisartan ester-linked adduct or vehicle (PBS) for 2 hours. […] Chemiluminescence was quantitated in a reader (AutoLumatPlus LB 953; EG&G, Berthold, Germany). The dynamic tracing was recorded for 180 seconds after the addition of lucigenin (10 μmol·L^−1) and NADPH (100 μmol·L^−1). […] The protein concentrations were measured with Bio-Rad kit (Hercules, Calif.). […]

[5] = target: T1, AT2-R (Bos taurus, UniProt G5E6F7); test: Angiotensin II, Type 2 receptor radioligand binding displacement; set-up: species or system bovine; details: 10^−8 M drug concentration, n=2 (FIG. 3B)
T1 construct: from tissue; host or cells: bovine cerebellum membranes
T1 sequence (G5E6F7 1-362): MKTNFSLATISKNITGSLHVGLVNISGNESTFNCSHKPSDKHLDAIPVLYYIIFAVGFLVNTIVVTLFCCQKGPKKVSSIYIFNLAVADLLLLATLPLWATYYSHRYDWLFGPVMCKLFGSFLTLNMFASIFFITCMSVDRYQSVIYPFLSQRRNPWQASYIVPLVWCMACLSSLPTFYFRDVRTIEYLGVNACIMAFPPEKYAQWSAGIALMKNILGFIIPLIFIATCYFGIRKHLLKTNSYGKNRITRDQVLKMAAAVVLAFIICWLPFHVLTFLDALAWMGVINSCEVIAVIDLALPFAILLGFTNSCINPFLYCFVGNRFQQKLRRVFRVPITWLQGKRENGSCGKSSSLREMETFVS
Procedure: Angiogensin II, Type 2 Assay.
The assay was performed with a membrane preparation from bovine cerebellum. 200 μL of receptor suspension was re-suspended as 400 units in 80 mL and 100 units in 20 mL. The ligand [^125I]Tyr-4-Angiotensin II ([M] 1E-^10, Kd (binding affinity) 4E-^10, Bmax 2.11 fmol/mg) was used as a control. Radioactivity was counted in DPM. The assay buffer was 50 mM TRIS-HCl, containing 100 mM NaCl, 1 mM MgCl2, 0.1 mM Bacitracin, 0.1% BSA, (pH 7.2 at 25° C.) in an assay volume of 250 μL. Radioligand: 25 μL of Sar1, Tyr4-[^125I].

SMILES | Δ MAP Day 1 [1] [mmHg] | Δ MAP Day 2 [1] [mmHg] | Δ MAP Day 3 [1] [mmHg] | inhibition of lucigenin-enhanced chemiluminescence counts [2] | reduction of MAP [3] | reduction of BP compared with tempol [3] | inhibition of O2.^− generation, tempol versus telmisartan ([4]; at 10^−4 M) | blood pressure effect, summary of Table 1 [1] | fall in MAP, high salt (6 g·100 g^−1) compared to normal salt (0.3 g·100 g^−1) diet ([3]; pilot study, 16-24 hours after tempol 80 μmol kg^−1) | fall in MAP after 4 daily doses compared to the first dose ([3]; pilot study, high salt intake) | inhibition of O2.^− generation ([4]; 10^−12 to 10^−4 M, 10^−6 M Ang II for 4 hours, comparison at 10^−11, 10^−10 and 10^−6 M) | AT2-R binding displacement [5] | reduction of BP compared with single drugs ([3]; 12-24 hours after the first gavage) | additive effect on BP with repeated dosing ([3]; 16-24 hours after the fourth gavage) | reduction of MAP compared with candesartan or candesartan plus tempol ([3]; over 24 hours) | reduction of blood pressure compared with candesartan or candesartan plus tempol ([3]; over four days)
CCCc1nc2c(C)cc(-c3nc4ccccc4n3C)cc2n1Cc1ccc(-c2ccccc2C(=O)O)cc1 [Telmisartan, telmisartan] | −14 | −20 | −16 | ineffective | reduced the MAP | significantly more effective in reducing the BP than tempol |  |  |  |  |  |  |  |  |  | 
CCOc1nc2cccc(C(=O)O)c2n1Cc1ccc(-c2ccccc2-c2nnn[nH]2)cc1 [candesartan] |  |  |  |  | reduced the MAP | significantly more effective in reducing the BP than tempol |  |  |  |  |  |  |  |  |  | 
CC1(C)CC(O)CC(C)(C)N1[O] [Tempol, tempol] | 0 | −4 | −2 |  | reduced the MAP |  | significantly (p<0.05) more effective than telmisartan | apparent absence of any consistent effect | twice as great | twice as great |  |  |  |  |  | 
CCCc1nc2c(C)cc(-c3nc4ccccc4n3C)cc2n1Cc1ccc(-c2ccccc2C(=O)OC2CC(C)(C)N([O])C(C)(C)C2)cc1 [YK] | −13 | −14 | −14 |  | reduced the MAP |  |  | reduce blood pressure of conscious SHR similar to telmisartan |  |  | significantly more effective than tempol or telmisartan alone | without effects on AT2-R binding | more effective than either tempol or telmisartan | lost with repeated dosing | reduced MAP significantly more than candesartan or candesartan plus tempol | still reduced blood pressure more than candesartan or candesartan plus tempol
CCCc1nc2c(C)cc(-c3nc4ccccc4n3C)cc2n1Cc1ccc(-c2ccccc2C(=O)NC2CC(C)(C)N([O])C(C)(C)C2)cc1 [PLJ] | −13 | −14 | −14 |  |  |  |  | reduce blood pressure of conscious SHR similar to telmisartan |  |  |  |  |  |  |  | 
